From patent US7368469B2, “Use of inhibitors of the renin-angiotensin system in the prevention of cardiovascular events” (Sanofi-Aventis Deutschland GmbH, priority 1999, dated 2008)
Read-outs that look alike come from different tables or passages of the source.

Columns and labels:
[1] = tested on: high risk patients without known low EF or HF; type: in vivo; conditions: for Blood pressure: active group
Description: A large-scale clinical trial (HOPE (Heart Outcomes Prevention Evaluation) Study) was designed to examine the effect of the ACE inhibitor ramipril versus placebo in reducing cardiovascular events. 9,297 high risk patients (≧55 yrs with evidence of vascular disease or diabetes plus one additional risk factor), without known low EF or HF were randomized to receive Ramipril (2.5 mg to 10 mg/day) or matching placebo for a mean duration of 5 years. The primary outcome was the first occurrence of the composite of cardiovascular (CV) mortality, myocardial infarction or stroke. The study was stopped at 4.5 years by the independent Data and Safety Monitoring Board because of convincing evidence of benefit. 646 (13.9%) patients allocated to Ramipril and 816 (17.5%) placebo patients experienced a primary outcome (Relative risk, RR of 0.78, 95% confidence interval of 0.70-0.86; Portable=0.000002). There were clear and significant reductions separately in CV deaths (6.0% v. 8.0%, RR of 0.75, Portable=0.0002), myocardial infarction (9.8% v.12.0%, RR of 0.68, Portable=0.0002). […] Other outcomes included worsening or new angina, or new heart failure (irrespective of hospitalization).
In a double blind, 2×2 factorial, randomized trial, HOPE evaluated Ramipril or vitamin E in 9541 patients. A substudy of 244 patients tested a low dose (2.5 mg/day) versus the full dose (10 mg/day) of Ramipril. The primary outcome in these 244 patients is reported as a footnote to Table 3. Therefore the main results report is on 9,297 patients randomized to receive 10 mg Ramipril or equivalent placebo. The effects of vitamin E are reported separately. The design of HOPE has been published (Can J Cardiology 1996; 12(2); 127-137), a brief summary follows below:
Men and women were eligible if aged 55 years and older, with prior coronary artery disease, stroke, peripheral vascular disease or diabetes plus at least one other risk factor (current or previous hypertension, elevated total cholesterol, low HDL cholesterol, current cigarette smoking, known microalbuminuria or previous vascular disease). Patents who had HF, were known to have low EF, those on ACE-I or vitamin E, those with uncontrolled hypertension or overt nephropathy, or recent MI (<4 weeks) were excluded. In this large, simple trial it was impractical to measure left ventricular function in all patients (none of whom had heart failure or were considered to need an ACE-I). Instead, echocardiograms were done in all patients (n=496) from 3 centres who entered a substudy. […] Additionally, an audit of charts identified that in 5285 patients a prerandomization and evaluation of ventricular function had been conducted. Only 409 (7.7%) were documented to have low EF and none had heart failure prior to randomization. A separate analysis of those documented to have a preserved EF (n=4876) is provided. After obtaining written informed consent, all eligible patients entered a run in phase where they received 2.5 mg Ramipril OD for 7-10 days followed by matching placebo for 10-14 days. Patients who were non compliant (<80% of pills taken), who experienced side effects, developed abnormal creatinine or potassium levels or those who withdrew consent were excluded. 9,541 were included; 9,297 were randomized to receive Ramipril at 10 mg/day or matching placebo, with 244 randomized to low dose (2.5 mg/day) of Ramipril.
At randomization, patients were allocated to receive Ramipril at 2.5 mg OD for one week, then 5 mg OD for another 3 weeks, followed by 10 mg once daily, or matching placebo. Additionally, all patients were randomized to vitamin E 400 IU/day or matching placebo. Follow-up visits occurred at 1 month, 6 months and then at 6 month intervals. At each visit, data were collected on events, compliance, and side effects leading to alteration of study medications. All primary and secondary events were documented on additional forms and were centrally adjudicated using standardized definitions. […]

[2] = tested on: high risk patients without known low EF or HF; type: in vivo; conditions: subgroup with documented preserved ventricular function (n=4676), vs placebo
[3] = tested on: patients randomized to captopril compared to a diuretic or beta blocker; conditions: cited from earlier work
[4] = Ramipril 10 mg/day group, n=4645
[5] = Ramipril group, diabetic nephropathy, renal dialysis, laser therapy
[6] = Ramipril group, irrespective of hospitalization
[7] = both, human, in vivo, 4.5 years

CCOC(=O)[C@H](CCc1ccccc1)N[C@@H](C)C(=O)N1[C@H](C(=O)O)C[C@@H]2CCC[C@@H]21 [Ramipril, ramipril]
Relative risk reduction (conditional RRR) ([1]; 2nd year): 22% | Relative risk reduction (conditional RRR) ([1]; 3rd year): 26% | Relative risk reduction (conditional RRR) ([1]; 4th year): 27% | Relative risk reduction in the primary outcome at interim analysis ([1]; DSMB interim look, Mar. 22, 1999, 95% CI 12% to 28%): 20% | Primary outcome CV death, MI, stroke: % of patients [1, 4]: 13.9% | Primary outcome CV death, MI, stroke: number of patients [1, 4]: 646 | New diagnosis of diabetes: % of patients ([1]; Ramipril group): 3.8% | New diagnosis of diabetes: number of patients ([1]; Ramipril group): 108 | Stopping blinded medication for hypotension/dizziness: % ([1]; Ramipril group): 1.8% | Stopping blinded medication for hypotension/dizziness: number ([1]; Ramipril group): 82 | Primary outcome: number of patients at 2 years ([1]; Ramipril group, at 2 years): 323 | Cardiac arrests: % of patients ([1]; Ramipril group, n=4645): 0.8% | Cardiac arrests: number of patients ([1]; Ramipril group, n=4645): 37 | Heart failure hospitalizations: % of patients ([1]; Ramipril group, n=4645): 3.2% | Heart failure hospitalizations: number of patients ([1]; Ramipril group, n=4645): 150 | MI: % of patients ([1]; Ramipril group, n=4645): 9.8% | MI: number of patients ([1]; Ramipril group, n=4645): 453 | Revascularization: % of patients ([1]; Ramipril group, n=4645): 16.0% | Revascularization: number of patients ([1]; Ramipril group, n=4645): 742 | Strokes: % of patients ([1]; Ramipril group, n=4645): 3.3% | Strokes: number of patients ([1]; Ramipril group, n=4645): 155 | Total mortality: % of patients ([1]; Ramipril group, n=4645): 10.3% | Total mortality: number of patients ([1]; Ramipril group, n=4645): 476 | UA with ECG changes: % of patients ([1]; Ramipril group, n=4645): 3.4% | UA with ECG changes: number of patients ([1]; Ramipril group, n=4645): 179 | Unstable angina hospitalization: % of patients ([1]; Ramipril group, n=4645): 12.1% | Unstable angina hospitalization: number of patients ([1]; Ramipril group, n=4645): 564 | Primary outcome: number of patients within 1 year after randomization ([1]; Ramipril group, within 1 year): 167 | Permanently discontinuing blinded medication, % of alive ([1]; Ramipril group, % of alive): 29.1% | Stopping blinded medication at any time, % of alive ([1]; Ramipril group, % of alive): 33.0% | Diabetic complications: % of patients [1, 5]: 6.4% | Diabetic complications: number of patients [1, 5]: 298 | All heart failure (new heart failure): number of patients [1, 6]: 343 | All heart failure: % of patients [1, 6]: 7.4% | Worsening angina: % of patients [1, 6]: 23.8% | Worsening angina: number of patients [1, 6]: 1104 | Difference in BP reduction, diastolic ([1]; Ramipril vs placebo): −2 mmHg | Difference in BP reduction, systolic ([1]; Ramipril vs placebo): −3 mmHg | Impact on hospitalizations for unstable angina ([1]; Ramipril vs placebo): no impact | Increase in patients stopping medication for dizziness/hypotension ([1]; Ramipril vs placebo, nonsignificant): 0.3% | Blood pressure ([1]; at 1 month, 139/79 at entry): 133/76 | Blood pressure ([1]; at 2 years): 135/76 | Blood pressure ([1]; at the end of the study): 136/76 | Excess of patients stopping for cough [1, 7]: 5% | No. permanently discontinuing blinded medication [1, 7]: 1207 | No. stopping blinded medication at any time [1, 7]: 1370 | Stopping blinded medication for angioedema: % [1, 7]: 0.3% | Stopping blinded medication for angioedema: number [1, 7]: 16 | Stopping blinded medication for cough: % [1, 7]: 7.2% | Stopping blinded medication for cough: number [1, 7]: 335 | Composite outcome of CV death, MI, stroke, heart failure, revascularization and diabetic complications ([1]; diabetic patients with no clinical manifestations of CVD (1100)): significantly reduced | Relative risk reduction ([1]; first year of the trial): about 11% | Primary outcome relative risk conditioned on survival up to the prior year ([1]; fourth year): 0.73 | Tolerability ([1]; in the trial): generally well tolerated | Primary outcome relative risk conditioned on survival up to the prior year ([1]; second year): 0.78 | Primary composite outcome relative risk (95% CI) ([1]; subgroup Age 65+, 5128 patients): 0.75 (0.66-0.85) | Primary composite outcome relative risk (95% CI) ([1]; subgroup Age <65, 4169 patients): 0.82 (0.70-0.98) | Primary composite outcome relative risk (95% CI) ([1]; subgroup CAD+, 7475 patients): 0.80 (0.71-0.89) | Primary composite outcome relative risk (95% CI) ([1]; subgroup CAD−, 1822 patients): 0.71 (0.54-0.93) | Primary composite outcome relative risk (95% CI) ([1]; subgroup CVD+, 8160 patients, Ramipril vs placebo): 078 (0.71-0.87) | Primary composite outcome relative risk (95% CI) ([1]; subgroup CVD−, 1137 patients): 0.81 (0.56-1.20) | Primary composite outcome relative risk (95% CI) ([1]; subgroup Cerebro VD+, 1013 patients): 0.73 (0.56-0.95) | Primary composite outcome relative risk (95% CI) ([1]; subgroup Cerebro VD−, 8284 patients): 0.79 (0.71-0.88) | Primary composite outcome relative risk (95% CI) ([1]; subgroup Diabetes+, 3578 patients): 0.76 (0.65-0.89) | Primary composite outcome relative risk (95% CI) ([1]; subgroup Diabetes−, 5719 patients): 0.79 (0.69-0.91) | Primary composite outcome relative risk (95% CI) ([1]; subgroup Female, 2480 patients): 0.76 (0.61-0.95) | Primary composite outcome relative risk (95% CI) ([1]; subgroup Hypertension+, 4355 patients): 0.75 (0.65-0.87) | Primary composite outcome relative risk (95% CI) ([1]; subgroup Hypertension−, 4942 patients): 0.81 (0.70-0.93) | Primary composite outcome relative risk (95% CI) ([1]; subgroup MA+ (microalbuminuria), 1963 patients): 0.71 (0.59-0.86) | Primary composite outcome relative risk (95% CI) ([1]; subgroup MA−, 7334 patients): 0.82 (0.72-0.92) | Primary composite outcome relative risk (95% CI) ([1]; subgroup Male, 6817 patients): 0.79 (0.70-0.89) | Primary composite outcome relative risk (95% CI) ([1]; subgroup PVD+, 4046 patients): 0.74 (0.64-0.86) | Primary composite outcome relative risk (95% CI) ([1]; subgroup PVD−, 5251 patients): 0.84 (0.72-0.98) | Primary composite outcome relative risk (95% CI) ([1]; subgroup Prior MI+, 4892 patients): 0.79 (0.69-0.90) | Primary outcome, events/patients, documented EF≧0.40 ([1]; subgroup with documented EF≧0.40 (n=4676), Ramipril group): 317/2339 | Primary outcome relative risk conditioned on survival up to the prior year ([1]; third year): 0.74 | Primary outcome RR at 2 years ([1]; vs placebo, at 2 years): 0.81 | Primary outcome RR within 1 year after randomization ([1]; vs placebo, within 1 year): 0.85 | Primary outcome RR, documented EF≧0.40 [2]: 0.73

C[C@H](CS)C(=O)N1CCC[C@H]1C(=O)O [captopril]
Newly diagnosed diabetes [3]: reduction in newly diagnosed diabetes
